Measured values taken from publication PMC7083937, “The ribosome-associated complex RAC serves in a relay that directs nascent chains to Ssb” (Nature Communications, 2020).

Tests used:
ScSsz1-Zuo1NΔLP complex = biological target: T1, ScSsz1-Zuo1NΔLP complex (Saccharomyces cerevisiae, UniProt P32527+P38788); format: binding; conditions: fluorescence anisotropy; N-terminally fluorescein-labelled peptide, 40 nM mixed 1:1 with protein; pH 7.5, 200 mM KCl; 30 min, room temperature; Ssz1-Zuo1NΔLP
T1 construct: His6-SUMO (N); made in house
Description: (§1) 1 µM BSA was added to prevent unspecific binding of the fluorescently labelled peptide to the microplate (Greiner Bio-One opaque 384 well plate). Fluorescence anisotropy measurements were performed using the LP-peptide (MFSLPTL) or the NR-peptide (NRLLLTG) labelled at the N terminus with fluorescein (Peptide Specialty Laboratories GmbH, Heidelberg). Two-fold serial dilutions of each protein (ScSsz1-Zuo1N or ScSsz1-Zuo1NΔLP) were mixed in a 1:1 ratio with 40 nM peptides in anisotropy buffer in 384-well opaque plates (Greiner Bio One) and were incubated at room temperature for 30 min. Measurements were performed in triplicate using a plate reader (SpectraMax M5e Multi Mode Microplate reader, Molecular Devices). To determine the binding constant (KD) the data were fitted to a one-site binding equation using Python[57].
(§2) Ssz1-Zuo1NΔLP Ssz1-Zuo1NΔLP
(§3) Supplementary Figure 6. Figure S6
(§4) An al ysi s o f su b strate b in di ng to ScRAC co re vari ants b y fl uo rescen ce an i so trop y.
(§5) (a) Binding curves of the fluorescently labeled LP-pept ide or (b ) NR-peptide to Ssz1-Zuo1N (circle) or
(§6) Ssz1-Zuo1NDLP (square) are shown. The mean and standard deviation from three technical replicates
(§7) is indicated. Source data are provided as a Source Data file.

ScSsz1-Zuo1N complex = biological target: T2, ScSsz1-Zuo1N complex (Saccharomyces cerevisiae, UniProt P32527+P38788); assay: fluorescence anisotropy peptide binding; conditions: N-terminally fluorescein-labelled peptide, 40 nM mixed 1:1 with protein, pH 7.5, 200 mM KCl, 30 min, room temperature, Ssz1-Zuo1N
T2 construct: His6-SUMO (N); made in house
T2 sequence (P38788 1-538): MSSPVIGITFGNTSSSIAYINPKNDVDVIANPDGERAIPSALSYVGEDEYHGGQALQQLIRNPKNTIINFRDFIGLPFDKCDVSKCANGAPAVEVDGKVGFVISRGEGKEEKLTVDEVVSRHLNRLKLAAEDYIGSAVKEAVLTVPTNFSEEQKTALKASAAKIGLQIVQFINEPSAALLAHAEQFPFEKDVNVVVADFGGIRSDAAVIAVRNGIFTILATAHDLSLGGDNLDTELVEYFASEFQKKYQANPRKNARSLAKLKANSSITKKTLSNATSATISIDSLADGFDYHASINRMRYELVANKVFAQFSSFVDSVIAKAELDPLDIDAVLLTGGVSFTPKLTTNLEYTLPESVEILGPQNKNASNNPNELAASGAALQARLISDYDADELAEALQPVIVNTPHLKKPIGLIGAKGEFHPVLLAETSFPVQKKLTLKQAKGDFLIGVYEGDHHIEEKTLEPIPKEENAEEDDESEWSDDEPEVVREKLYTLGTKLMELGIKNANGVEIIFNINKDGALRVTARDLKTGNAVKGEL
T2 sequence (P32527 1-50 partner): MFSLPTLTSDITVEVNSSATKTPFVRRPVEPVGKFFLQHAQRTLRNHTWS
Description: as §1, §2, §3, §4, §5, §6, §7

Zuo1-ΔN8 = assay: peptide competition with nascent chain crosslinking (XL-Zuo1); format: biochemical, Saccharomyces cerevisiae; conditions: RNCs Pgk1-100, RAC-ΔN8, Δssb; peptide added prior to 400 µM BS3 crosslinking, 5 or 50 µM
Source text: Fig. 3 Nascent chain binding to the Ssz1-SBD is modulated by the N-terminus of Zuo1. a Amino acid sequence of the ScZuo1N. Arrows indicate the positions of truncations in Zuo1-ΔN8, Zuo1-ΔN16, and Zuo1-ΔN49. The color code is as in Fig. 2a. The secondary structure derived from the crystal structure is depicted above. b The Zuo1N LP-motif interferes with the contact of nascent Pgk1-100 with Zuo1 and Ssz1. Ribosome-free extracts obtained from Δssb1Δssb2 (Zuo1, Ssz1), Δssb1Δssb2 RAC-ΔN8 (ΔN8, Ssz1), or Δssb1Δssb2 RAC-ΔN16 (ΔN16, Ssz1) strains (upper panel) were added to RNCs from Δssb1Δssb2Δzuo1Δssz1 translation extract prior to crosslinking. Crosslink products between Zuo1 and nascent Pgk1-100 (XL-Zuo1) and Ssz1 and nascent Pgk1-100 (XL-Ssz1), respectively. c, d Quantification of crosslinking between nascent Pgk1-100 and Zuo1 (c) and Ssz1 (d). Autoradiographs as shown in (b) were employed for the quantification of nascent Pgk1-100 and the crosslink products XL-Zuo1 and XL-Ssz1. Values were normalized as described in Methods. The efficiency of crosslinking is given as a percentage of nascent Pgk1-100 present in the reaction. […]
(§8) Chemical crosslinking of ribosome-bound nascent chains to Ssb, Zuo1, or Ssz1 was analyzed essentially as described. […] Samples were analyzed on Tris-Tricine gels[56] followed by autoradiography. […]

Ssz1 in RAC-ΔN8 = assay: peptide competition with nascent chain crosslinking (XL-Ssz1); format: biochemical, Saccharomyces cerevisiae
Source text: Fig. 3 Nascent chain binding to the Ssz1-SBD is modulated by the N-terminus of Zuo1. a Amino acid sequence of the ScZuo1N. Arrows indicate the positions of truncations in Zuo1-ΔN8, Zuo1-ΔN16, and Zuo1-ΔN49. The color code is as in Fig. 2a. The secondary structure derived from the crystal structure is depicted above. b The Zuo1N LP-motif interferes with the contact of nascent Pgk1-100 with Zuo1 and Ssz1. Ribosome-free extracts obtained from Δssb1Δssb2 (Zuo1, Ssz1), Δssb1Δssb2 RAC-ΔN8 (ΔN8, Ssz1), or Δssb1Δssb2 RAC-ΔN16 (ΔN16, Ssz1) strains (upper panel) were added to RNCs from Δssb1Δssb2Δzuo1Δssz1 translation extract prior to crosslinking. Crosslink products between Zuo1 and nascent Pgk1-100 (XL-Zuo1) and Ssz1 and nascent Pgk1-100 (XL-Ssz1), respectively. c, d Quantification of crosslinking between nascent Pgk1-100 and Zuo1 (c) and Ssz1 (d). Autoradiographs as shown in (b) were employed for the quantification of nascent Pgk1-100 and the crosslink products XL-Zuo1 and XL-Ssz1. Values were normalized as described in Methods. The efficiency of crosslinking is given as a percentage of nascent Pgk1-100 present in the reaction. Experiments were performed in triplicate, with the exception of the XL-Zuo1-ΔN8 (shown in c), which was performed only once. Shown is the mean (bars) and the result of each biologically independent experiment (dots). Error bars indicate the standard deviation of the mean. e Crosslinking of the nascent chain to Ssz1 requires a functional peptide binding groove. Ribosome-free extracts from Δssb1Δssb2 RAC-ΔN8 (Zuo1-ΔN8, Ssz1) or Δssb1Δssb2 RACmut-ΔN8 (Zuo1-ΔN8, Ssz1mut) (upper panel) was added to RNCs generated in Δssb1Δssb2Δzuo1Δssz1 translation extract as described in Fig. 1b. […] RNCs were generated in a Δssb1Δssb2Δzuo1Δssz1 translation extract and ribosome-free extract from Δssb1Δssb2 RAC-ΔN8 (Zuo1-ΔN8, Ssz1) was added. […]
as §8

ATP-bound DnaK = conditions: read-out: affinity for ATP-bound DnaK, low-affinity state; cited from earlier work

NRLLLTG [NR-peptide]
affinity (ScSsz1-Zuo1NΔLP complex): below the detection limit | affinity (ScSsz1-Zuo1N complex): below the detection limit | effect on nascent chain crosslinking to Zuo1-ΔN8 (XL-Zuo1) (Zuo1-ΔN8): Neither of the peptides added prior to the crosslinking reaction affected nascent chain crosslinking to Zuo1-ΔN8 | displacement of nascent chain (Ssz1 in RAC-ΔN8; 50 µM peptide, ribosome-bound nascent chain): partly displaced | effect on nascent chain crosslinking to Ssz1 (XL-Ssz1) (Ssz1 in RAC-ΔN8; RNCs Pgk1-100, RAC-ΔN8, Δssb, peptide added prior to 400 µM BS3 crosslinking, 5 or 50 µM): to a lesser extent also NR-peptide, significantly reduced crosslinking of the nascent chain to Ssz1 | displacement compared with LP-peptide (Ssz1 in RAC-ΔN8; ribosome-bound nascent chain, 50 µM peptide): significantly lower | Kd (ATP-bound DnaK): 23.8 ± 3.8 µM
